US6743425B2, “Therapeutic agents for achondroplasia” (priority 2001, dated 2004)

Assays:
[1] = tested on: tibiae from fetal mice; conditions: organ cultures of tibiae from fetal mice; J. Biol. Chem. 273: 11695-11700, 1998; cited from earlier work
[2] = tested on: organ cultures of tibiae from fetal mice, cultured chondrocytes and cultured osteoblasts; conditions: cited from earlier work
[3] = tested on: p44 and p42 MAP kinases (ERK1/2); test: phosphorylation of ERK1/2 after basic FGF stimulation, Western blotting in ATDC cells; assay type: cell-based, mouse; conditions: pretreatment for 1 h, 10^-7 CNP
Description: (§1) Cells of the mouse chondrocyte strain ATDC (J. Bone. Miner. Res., 12, 1174-1188, 1997; supplied from Assistant Professor Shukunami and Professor […] of the Institute for Frontier Medical Sciences, Kyoto University) were pretreated with 1-10 ng/ml basic FGF (SIGMA), a ligand for FGFR3. Then, these cells were stimulated with 10^-9-10^-7 M CNP and assayed for intracellular cGMP production by the RIA method (cyclic GMP Assay Kit available from YAMASA CORPORATION). Phosphorylation of p44 and p42 MAP kinases (ERK1/2) and expression of […] and p44 MAP kinase (ERK1) after basic FGF stimulation were also assayed by Western blotting using phosphorylated MAP-K antibodies and MAP-K antibodies (both available from Cell Signaling Technology; MAP: mitogen-activated protein).

[4] = tested on: tibiae from the fetus of CNP-transgenic mice or their nontransgenic littermates; test: organ culture of embryonic tibiae (4-d culture; longitudinal length and histology); assay type: cell-based, mouse; conditions: cultured tibiae from nontransgenic littermates in the presence of 10^-7 M CNP
Description: Tibiae from the fetus of CNP-transgenic mice or their nontransgenic littermates were dissected out on 16.5-d post coitus and cultured for 4 days in suspension in an artificial medium. To inhibit the effect of the endogenous CNP, the tibial culture was performed with a non-peptide NP receptor antagonist, HS-142-1 (Komatsu et al., Circ Res. 78:606-614, 1996) at a concentration of 50 mg/L in the medium. At the end of the culture period, the cultured tibiae were measured for their longitudinal length, and fixed and embedded for histological analysis. Sections of 5 μm in thickness were cut from the embedded specimen and stained with Alcian blue (pH 2.5) and counterstained with hematoxylin/eosin. The cGMP contents of the cultured tibiae were measured by RIA at the end of the 4-d culture period. Glycosaminoglycan synthesis of the cultured tibiae was assessed by measuring ^35SO4 incorporation (Mericq et al., Pediatr Res 47: 189-193, 2000). Namely, cultured tibiae of the CNP-transgenic mice and their nontransgenic littermates were labeled with 5 μCi/ml Na2^35SO4 (Amersham, specific activity 100 mCi/mmol) for 1 h. […] The precipitate was washed three times with 1 ml of 0.1% cetylpyridinium chloride (Sigma Chemical Co.)—0.2 M NaCl and then dissolved in 1 ml of 23 N formic acid, after which the ^35SO4 content was determined by a liquid scintillation counter.

[5] = tested on: mouse chondrocyte strain ATDC; test: intracellular cGMP production by RIA in ATDC cells after basic FGF pretreatment and CNP stimulation; assay type: cell-based; conditions: pretreatment with 1 ng/ml basic FGF for 1 h
Description: as §1

## C-type natriuretic peptide [CNP]
[1]
  longitudinal bone growth: significantly promotes
[2]
  potency in the production of cGMP compared with ANP and BNP: more potent than ANP and BNP
[3]
  phosphorylation of ERK1/2 with basic FGF: significantly inhibited
[4]
  elongation of the cartilagenous primordia with enlarged extracellular matrix and increased size of hypertrophic chondrocytes: potent

## basic FGF: a ligand for FGFR3 (SIGMA)
[5]
  intracellular cGMP production after CNP stimulation: 70 % of control
